The values that follow are results of earlier work, collected in US10117939B2, “Pharmaceutical compositions comprising nebivolol or a nebivolol analogue” (MYLAN PHARMACEUTICALS ULC, priority 2007, dated 2018).

For this series the following is noted: as described in EP 0 744 946.

Take `Cl.O[C@H](CNC[C@@H](O)[C@H]1CCc2cc(F)ccc2O1)[C@@H]1CCc2cc(F)ccc2O1` [“micronized” nebivolol hydrochloride]: the “Dissolution (in words)” value is recorded as “even worse than material in the normal crystalline form”.

For the molecule `Cl.O[C@H](CNC[C@@H](O)[C@H]1CCc2cc(F)ccc2O1)[C@@H]1CCc2cc(F)ccc2O1` (relative stereo) [nebivolol hydrochloride, ((±))-(R*(S*(S*—(S*))))-(alpha),(alpha)′-(iminobis(methylene)bis-(6-fluoro-3,4-dihydro-2H-1-benzopyran-2-methanol)], the “Dissolution (in words)” value was “poor dissolution”.
